Data published in ChEMBL document CHEMBL6103579, “Antiproliferative activity of selenium-enriched coumarin derivatives on the SK-N-SH neuroblastoma cell line: Mechanistic insights” (Eur J Med Chem, 2025).
The source made the active and inactive calls. The calls are words filed in the database; no cut-off is given here.

Tests used:
[1] = system: Neuroblastoma cell; assay: Antiproliferative activity against human Neuroblastoma cell assessed as inhibition of cell growth incubated for 60 hrs by CCK-8 method; type: functional, cell-based
[2] = Antiproliferative activity against human Embryonic lung cell assessed as inhibition of cell growth incubated for 60 hrs by CCK-8 method; type: toxicity, cell-based

Compound: COc1ccc(C2CC(c3ccc(F)cc3)=NN2C(=O)c2cc3ccc(OCCC[Se]C#N)cc3oc2=O)cc1 (configuration not stated)
- Activity [1]: Active
- Activity [2]: Non-toxic
